Reference: patent US20220175761A1, “BI-LIGAND DRUG CONJUGATE AND USE THEREOF” (COHERENT BIOPHARMA (SUZHOU), LIMITED, priority 2019, published 2022)
Numbered stars: 1 amine (or outer) side, 2 acyl side, 3 side chain; on linkers, the order of the positions; unused ones are H or OH. Bridge positions count the residues as written; N and C are the ends. Square brackets hold non-standard residues; d marks the D form. Peptide text beside a SMILES is read from it. I, II: the chains in the order shown. * marks the point of attachment. ξ: configuration not given here. X6 = CCc1c2c(nc3ccc(O)cc13)-c1cc3c(c(=O)n1C2)COC(=O)[C@@]3(CC)OC(=O)OCc1ccc(NC(=O)COCC(=O)NCCOCCOCCOCCOCCOCCn2nncc2CNC(=O)CCCCCN2C(=O)CC(*)C2=O)cc1; EuK = O=C(O)CC[C@H](NC(=O)N[C@@H](CCCCN*)C(=O)O)C(=O)O; Pteroyl = Nc1nc2ncc(CNc3ccc(C(=O)*)cc3)nc2c(=O)[nH]1; Dolaproine = CO[C@@H]([C@@H]1CCCN1)[C@@H](C)C(=O)O; Dil = CC[C@H](C)[C@H](NC)[C@@H](CC(=O)O)OC; X3 = O=C1CC([*:2])C(=O)N1CCCCCC(=O)[*:1]; γGlu = O=C(O)[C@H](CCC(=O)[*:2])N[*:1]; PABC = O=C(OCc1ccc(N[*:1])cc1)[*:2]; X1 = C[C@@H](N*)[C@@H](O)c1ccccc1; X2 = O=C(Cc1ccc(CN[*:1])cc1)[*:2]; NMeV = CN[C@H](C(=O)O)C(C)C; ξCit = NC(=O)NCCCC(N)C(=O)O; CO = O=C([*:1])[*:2]; ξV = CC(C)C(N)C(=O)O; ξC = NC(CS)C(=O)O

Assays:
[1] = tested on: KB, LNCaP, T-47D, RT4 and NCI-H460 tumor cell lines; assay: Inhibition of tumor cell expansion, CCK8 (CB-10S); assay type: cell-based, human
Procedure: Cell lines: KB human oral epidermoid carcinoma cells, NCI-H460 human lung cancer cells, RT4 human bladder cancer cells, T-47D human breast cancer cells and LNcap human prostate cancer cells
The cells were prepared in advance, digested with trypsin, collected and counted; with a complete cell culture medium, KB cells were diluted to 3.5×10^4 cells/ml, LNCaP cells were diluted to 8.0×10^4 cells/ml, T-47D cells were diluted to 1.2×10^4 cells/ml, NCI-H460 cells were diluted to 2.5×10^4 cells/ml, and RT4 cells were diluted to 1.2×10^4 cells/ml; to each well of 96-well plates, 100 μl of the diluted cell solution was added; and negative control and blank control wells were set on each plate. The 96-well plates added with the cells were placed in an incubator at 37° C., 5% CO2 for culturing overnight.
The samples were diluted with a culture medium to desired concentrations (see Table 12). […]
(§1) To each well, 15 μl (10% of the liquid volume in a well) of a color developing solution from CCK-8 was added; the plates were incubated at 37° C. for an appropriate time (try to keep the OD value in the range of 1.0-2.0); the covers of the 96-well plates were removed, and the plates were read at 450 nm on a microplate reader (Molecular Devices Spectra MAX Plus). […]

[2] = tested on: LNCaP (human prostate cancer cells); assay: Inhibition of cell line proliferation, CCK8; assay type: cell-based; settings: for IC50 ratio (MMAE/conjugate) / IC50: LNCaP; for IC50: 68-72 hours, CCK8
Source text: (§2) Since different cells have different sensitivity to a cell proliferation inhibitory toxicity of the payload in a ligand conjugate, the quantitative analysis may be interfered occasionally. A series of cell lines with known expression levels of receptors of different ligands were selected and tested for the response to inhibitory effects of the cell proliferation of a ligand conjugate and a single payload. The IC50 ratio of a single payload to that of a ligand conjugate in same cell line were taken to remove such interference.
Experimental operations: LNCaP and 22RV1 cells were prepared in advance, counted, and plated in 96-well cell culture plates at a cell density of 4×10^4 cells/ml and 2.0×10^4 cells/ml, respectively (100 μl/well); negative control and blank control wells were set on each plate. After adherent cell culture overnight, the diluted samples to be tested were added at 50 μl/well. The plates were placed in an incubator at 37° C., 5% CO2 and cultured for 68-72 hours. To each well, 15 μl (10% of the liquid volume in a well) of a color developing solution from CCK8 was added; and the plates were incubated at 37° C. for 45-70 minutes and each plate was read at 450 nm on a microplate reader. The data was edited using SoftMax Pro and a 4-P fitting curve was plotted. […]

[3] = molecular target: T1, FOLR1 (Homo sapiens, UniProt P15328); assay: BIAcore T200 binding affinity to FOLR1 (CM5 chip conjugated with FOLR1)
T1 construct: purchased R&D System 5646-FR
T1 sequence (P15328 25-233 limits assumed): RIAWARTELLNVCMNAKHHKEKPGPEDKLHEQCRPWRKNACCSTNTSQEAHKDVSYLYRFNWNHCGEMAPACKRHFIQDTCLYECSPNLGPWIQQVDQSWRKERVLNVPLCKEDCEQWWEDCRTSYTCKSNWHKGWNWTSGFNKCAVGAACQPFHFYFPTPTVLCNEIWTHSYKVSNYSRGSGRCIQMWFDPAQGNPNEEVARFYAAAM
Source text: Buffer: HBS-EP+ buffer 10× (GE, Cat #: BR100669), diluted 10 folds with deionized water before use.
In the experiment, CM5 chip was conjugated with ligand FOLR1 (R&D System, Cat #: 5646-FR).

[4] = tested on: 22RV1 (human prostate cancer cells); assay: Inhibition of cell line proliferation, CCK8; assay type: cell-based; settings: for IC50 ratio (MMAE/conjugate): 22RV1; for IC50: 22RV1, 68-72 hours, CCK8
Source text: as §2
Experimental operations: LNCaP and 22RV1 cells were prepared in advance, counted, and plated in 96-well cell culture plates at a cell density of 4×10^4 cells/ml and 2.0×10^4 cells/ml, respectively (100 μl/well); negative control and blank control wells were set on each plate. After adherent cell culture overnight, the diluted samples to be tested were added at 50 μl/well. The plates were placed in an incubator at 37° C., 5% CO2 and cultured for 68-72 hours. To each well, 15 μl (10% of the liquid volume in a well) of a color developing solution from CCK8 was added; and the plates were incubated at 37° C. for 45-70 minutes and each plate was read at 450 nm on a microplate reader. The data was edited using SoftMax Pro and a 4-P fitting curve was plotted.

[5] = tested on: KB, T-47D, NCI-H460, CALU-3, HuH-7, and LNCaP tumor cell lines; assay: Inhibition of tumor cell expansion, CCK8 (CB-60S); assay type: cell-based, human
Procedure: (§3) Cell lines: KB human oral epidermoid carcinoma cells, T-47D human breast cancer cells, NCI-H460 human lung cancer cells, CALU-3 human lung adenocarcinoma cells, HuH-7 human liver cancer cells and LNCaP human prostate cancer cells
The cells were prepared in advance, digested with trypsin, collected and counted; with a complete cell culture medium, KB cells were diluted to 2.0×10^4 cells/ml, T-47D cells were diluted to 1.5×10^4 cells/ml, NCI-H460 cells were diluted to 2.0×10^4 cells/ml, CALU-3 cells were diluted to 3.0×10^4 cells/ml, HuH-7 cells were diluted to 4.0×10^4 cells/ml, and LNCaP cells were diluted to 8.0×10^4 cells/ml; 100 μl of the diluted cell solution was added to each well of 96-well plates; and negative control and blank control wells were set on each plate. The 96-well plates added with the cells were placed in an incubator at 37° C., 5% CO2 for culturing overnight.
The samples were diluted with a culture medium to desired concentrations (see Table 13). […]
as §1

[6] = molecular target: FOLH1 (Homo sapiens, UniProt Q04609); assay: BIAcore T200: binding of FOLH1 to compound-FOLR1 complex; parameters: purchased Sino Biologicals (FOLH1); R&D System (FOLR1) 15877-H07H (FOLH1); 5646-FR (FOLR1)
Chain of FOLH1 (Q04609 44-750 limits assumed): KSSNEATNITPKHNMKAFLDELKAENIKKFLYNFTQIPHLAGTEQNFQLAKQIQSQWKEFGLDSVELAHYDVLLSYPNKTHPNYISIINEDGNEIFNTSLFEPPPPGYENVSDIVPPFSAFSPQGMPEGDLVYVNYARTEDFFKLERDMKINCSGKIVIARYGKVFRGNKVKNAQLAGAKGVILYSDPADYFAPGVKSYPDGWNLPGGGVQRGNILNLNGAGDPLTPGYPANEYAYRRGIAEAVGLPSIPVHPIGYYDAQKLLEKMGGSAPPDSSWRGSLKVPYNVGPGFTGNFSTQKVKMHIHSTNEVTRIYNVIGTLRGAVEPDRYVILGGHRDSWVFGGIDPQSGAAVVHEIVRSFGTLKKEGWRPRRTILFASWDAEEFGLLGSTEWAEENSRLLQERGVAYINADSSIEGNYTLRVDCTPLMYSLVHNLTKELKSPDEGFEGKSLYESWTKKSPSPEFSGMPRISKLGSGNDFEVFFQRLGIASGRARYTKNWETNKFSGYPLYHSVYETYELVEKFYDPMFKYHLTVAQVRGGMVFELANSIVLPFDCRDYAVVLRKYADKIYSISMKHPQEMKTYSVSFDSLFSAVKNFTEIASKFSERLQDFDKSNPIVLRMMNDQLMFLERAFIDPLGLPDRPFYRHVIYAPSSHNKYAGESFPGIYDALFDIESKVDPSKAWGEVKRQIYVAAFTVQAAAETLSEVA
Chain of FOLH1 (P15328 25-233 partner limits assumed): as the sequence (P15328 25-233 limits assumed) above
Source text: CM5 chip was conjugated with a ligand: FOLR1 (R&D System, Cat #: 5646-FR)
Analyte: CB-20BK, FA-MMAE and FOLH1 (Sino Biologicals, Cat #: 15877-H07H)
According to BIAcore T200 (GE) operating manual, FOLR1 was conjugated to the CM5 chip; CB-20BK or FA-MMAE was loaded first, and then FOLH1 was loaded; and the binding of FOLH1 to the CB-20BK-FOLR1 complex was detected.

[7] = tested on: KB, T-47D, NCI-H460, CALU-3, HuH-7, and LNCaP tumor cell lines; assay: Inhibition of tumor cell expansion, CCK8 (CB-60SK); assay type: cell-based, human
Procedure: as §3
The cells were prepared in advance, digested with trypsin, collected and counted; with a complete cell culture medium, KB cells were diluted to 2.5×10^4 cells/ml, T-47D cells were diluted to 1.3×10^4 cells/ml, NCI-H460 cells were diluted to 3.5×10^4 cells/ml, CALU-3 cells were diluted to 4.0×10^4 cells/ml, HuH-7 cells were diluted to 3.0×10^4 cells/ml, and LNCaP cells were diluted to 8.0×10^4 cells/ml; 100 μl of the diluted cell solution was added to each well; and negative control and blank control wells were set on each plate. The 96-well plates added with the cells were placed in an incubator at 37° C., 5% CO2 for culturing overnight.
The samples were diluted with a culture medium to desired concentrations (see Table 14). […]
as §1

SMILES: CCc1c2c(nc3ccc(O)cc13)-c1cc3c(c(=O)n1C2)COC(=O)[C@@]3(CC)OC(=O)OCc1ccc(NC(=O)COCC(=O)NCCOCCOCCOCCOCCOCCn2nncc2CNC(=O)CCCCCN2C(=O)CC(SC[C@H](NC(=O)CC[C@H](NC(=O)c3ccc(NCc4cnc5[nH]c(N)nc(=O)c5n4)cc3)C(=O)O)C(=O)N[C@@H](CCCCN)C(=O)N[C@@H](CCC(=O)O)C(=O)N[C@@H](Cc3ccccc3)C(=O)N[C@@H](CC(C)C)C(=O)N[C@@H](Cc3cnc[nH]3)C(=O)N3CCC[C@H]3C(=O)N[C@@H](CO)C(=O)N[C@@H](CCCCN)C(=O)NC(C(=O)N[C@@H](CC(=O)O)C(=O)N[C@@H](CC(C)C)C(=O)N3CCC[C@H]3C(=O)N[C@@H](CCCNC(=N)N)C(=O)O)C(C)C)C2=O)cc1 (some centres unmarked) [CB-10S] ({Pteroyl-γGlu}-C(X6)KEFLHPSK[ξV]DLPR-OH)
- inhibitory effect on growth and expansion of tumor cell lines ([1]; 72 hours, CCK-8): has an inhibitory effect
- IC50 compared between cell lines ([1]; KB, LNcap, T-47D and RT4 versus NCI-H460): significantly lower

SMILES: CC[C@H](C)[C@@H]([C@@H](CC(=O)N1CCC[C@H]1[C@H](OC)[C@@H](C)C(=O)N[C@H](C)[C@@H](O)c1ccccc1)OC)N(C)C(=O)[C@@H](NC(=O)[C@H](C(C)C)N(C)C(=O)OCc1ccc(NC(=O)C(CCCNC(N)=O)NC(=O)[C@@H](NC(=O)CCCCCN2C(=O)CC(SCC(NC(=O)[C@H](CCCCN)NC(=O)[C@H](CC(=O)O)NC(=O)[C@H](CC(=O)O)NC(=O)Cc3ccc(CNC(=O)NCCCC[C@H](NC(=O)N[C@@H](CCC(=O)O)C(=O)O)C(=O)O)cc3)C(N)=O)C2=O)C(C)C)cc1)C(C)C (some centres unmarked) [CB-20AK, reference compound] (I: V[ξCit][PABC][NMeV]V[Dil][Dolaproine]-X1 / II: {EuK-CO}-[X2]DDK[ξC]-NH2; linker I:N-II:5 via X3)
- IC50 ratio (MMAE/conjugate) [2]: 0.025
- IC50 [2]: 0.102 µM
- specific binding to FOLR1 (in words) ([3]; BIAcore T200): has not been detected to specifically bind to FOLR1
- IC50 ratio (MMAE/conjugate) [4]: 0.006
- IC50 [4]: 1.05 µM

SMILES: CCc1c2c(nc3ccc(O)cc13)-c1cc3c(c(=O)n1C2)COC(=O)[C@@]3(CC)OC(=O)OCc1ccc(NC(=O)[C@H](CCCNC(N)=O)NC(=O)COCC(=O)NCCOCCOCCOCCOCCOCCn2cc(C[C@H](NC(=O)[C@H](CC(=O)O)NC(=O)[C@H](CC(=O)O)NC(=O)Cc3ccc(CNC(=O)NCCCC[C@H](NC(=O)N[C@@H](CCC(=O)O)C(=O)O)C(=O)O)cc3)C(=O)N[C@@H](CCCCNC(=O)CC[C@H](NC(=O)c3ccc(NCc4cnc5[nH]c(N)nc(=O)c5n4)cc3)C(=O)O)C(N)=O)nn2)cc1 [CB-60S]
- inhibitory effect on growth and expansion of tumor cell lines ([5]; 72 hours, CCK-8): has an inhibitory effect
- IC50 compared between cell lines ([5]; LNCaP and HuH-7 versus NCI-H460, KB, T-47D and CALU-3): significantly lower

SMILES: CC[C@@]1(O)C(=O)OCc2c1cc1n(c2=O)Cc2c-1nc1cc(F)c(C)c3c1c2[C@@H](NC(=O)COCNC(=O)CNC(=O)[C@H](Cc1ccccc1)NC(=O)CNC(=O)CNC(=O)CCCCCN1C(=O)CC(SC[C@H](NC(=O)CC[C@H](NC(=O)c2ccc(NCc4cnc5[nH]c(N)nc(=O)c5n4)cc2)C(=O)O)C(=O)N[C@@H](CCCCN)C(N)=O)C1=O)CC3 (some centres unmarked) [FA-MMAE, reference compound]
- IC50 ratio (MMAE/conjugate) [2]: 0.010
- IC50 ratio in LNCaP relative to IC50 ratio in 22RV1 (times higher / factor) ([2]; LNCaP versus 22RV1): 1.5
- IC50 [2]: 0.264 µM
- Binding of compound-FOLR1 complex to FOLH1 solution ([6]; FOLH1 concentration 0.0625 μM): −1 RU
- Binding of compound-FOLR1 complex to FOLH1 solution ([6]; FOLH1 concentration 0.125 μM): 4.2 RU
- Binding of compound-FOLR1 complex to FOLH1 solution ([6]; FOLH1 concentration 0.25 μM): 8.4 RU
- Binding of compound-FOLR1 complex to FOLH1 solution ([6]; FOLH1 concentration 0.5 μM): 9.8 RU
- amount of FOLH1 bound to compound-FOLR1 complex (in words) ([6]; FOLH1 solution at a high concentration): tends to saturate at a high concentration
- kd ([3]; FOLR1 on CM5 chip, N/D = no specific binding was detected): 0.000115 s⁻¹
- kon ([3]; read-out: ka): 1.79e+06 M⁻¹ s⁻¹
- IC50 ratio (MMAE/conjugate) [4]: 0.006
- IC50 [4]: 1.01 µM

SMILES: CCc1c2c(nc3ccc(O)cc13)-c1cc3c(c(=O)n1C2)COC(=O)[C@@]3(CC)OC(=O)OCc1ccc(NC(=O)[C@H](CCCNC(N)=O)NC(=O)COCC(=O)NCCOCCOCCOCCOCCOCCn2cc(C[C@H](NC(=O)[C@H](CCCCN)NC(=O)[C@H](CC(=O)O)NC(=O)[C@H](CC(=O)O)NC(=O)Cc3ccc(CNC(=O)NCCCC[C@H](NC(=O)N[C@@H](CCC(=O)O)C(=O)O)C(=O)O)cc3)C(=O)N[C@@H](CCCCNC(=O)CC[C@H](NC(=O)c3ccc(NCc4cnc5[nH]c(N)nc(=O)c5n4)cc3)C(=O)O)C(N)=O)nn2)cc1 [CB-60SK]
- inhibitory effect on growth and expansion of tumor cell lines ([7]; 72 hours, CCK-8): has an inhibitory effect
- IC50 compared between cell lines ([7]; LNCaP and HuH-7 versus T-47D, NCI-H460, CALU-3 and KB): significantly lower
